US20240094211A1, “COMPOSITIONS AND METHODS TARGETING S100A10 FOR THE TREATMENT AND DIAGNOSIS OF LIVER CANCER” (The University of Hong Kong, priority 2022, published 2024)

Key:
HCC cells (PLC, 97L) [1] = test: Chemotherapy-induced cytotoxicity / chemoresistance (XTT assay); format: cell-based, human; conditions: for cell viability of S100A10-OE cells versus controls on treatment: PLC and 97L
HCC cells (PLC, 97L) [2] = test: Apoptotic assay (annexin-V staining, flow cytometry); format: cell-based, human; conditions: PLC and 97L, 48 h
Procedure: The apoptotic assay was determined by flow cytometry using annexin-V staining.

[3] = test system: PLC-S100A10 xenograft tumors; test: Chemoresistance / treatment in subcutaneous xenograft model; format: in vivo; conditions: nude mice
Procedure: All animal experiments were conducted and approved by the University of Hong Kong Committee on the Use of Live Animals in Teaching and Research (CULATR). The frequency of CSCs with tumor initiation capabilities was evaluated using limiting dilution assay. The BALB/c nude mouse xenograft model was used to evaluate tumorigenicity and chemoresistant ability in vivo. Nude mice were intrasplenically injected with HCC cells to assess the liver metastatic capacity in vivo. After surgery, mice recovered from anesthesia in a cage under a heater. Analgesia was provided to the nude mice during the first postoperative week. Tail vein injection of luciferase-labelled MHCC-97L cells in NOD SCID mice was used to assess lung metastatic ability. After mice were killed, the tumor tissues, livers, spleens, and lungs were excised and fixed in 4% paraformaldehyde overnight. Thereafter, fixed tissues were embedded in paraffin for further studies.
For chemoresistance in xenograft model, subcutaneous xenografts in nude mice were established with PLC/PRF/5 or MHCC97L cells. Treatment was started once the size of the xenograft reached ˜5 mm in diameter. The mice were randomly assigned into different groups, each consisting of at least 5 mice. Sorafenib at 10 mg/kg was administered daily through oral gavage. Mouse IgG antibody or anti-S100A10 antibody was administered at 10 μg once every 3 days by intraperitoneal injection.

S100A10 = S100A10 expression under chemotherapeutic treatment (qRT-PCR, western blot); format: cell-based, human; conditions: HCC cells treated with chemotherapeutic agents
Procedure: Total RNA was extracted using the TRIZOL Reagent (Life Technologies). cDNA was synthesized by reverse transcription (Roche). SYRB Green PCR Master Mix (Applied Biosystems) and Applied Biosystems Quant Studio 5 Real-time PCR System were used for qRT-PCR analysis. All qRT-PCR reactions were tested in triplicates.
(§1) Quantified protein lysates were resolved on SDS-PAGE, transferred onto a polyvinylidenedifluoride (PVDF) membrane (Bio-Rad), and then blocked with 5% non-fat milk in Tris-buffered saline-Tween 20 (TBST) for 1 h at room temperature. The blocked membrane was then incubated with primary antibody diluted in 5% bovine serum albumin in TBST at 4° C. overnight.

HIF-1α = HIF-1α expression under chemotherapeutic treatment (western blot); format: cell-based, human; conditions: HCC cells treated with chemotherapeutic agents
Procedure: as §1

HCC cells (PLC, 97L) [4] = test: Transwell migration and matrigel invasion assays (pretreated HCC cells); format: cell-based, human
Procedure: Transwell migration and invasion assays were performed to evaluate cell motility (Corning, #353097 for migration, #354480 for invasion). Approximately 1×10^5 cells were seeded in the medium without FBS on transwell upper chambers, and the lower chamber was supplied with medium with 10% FBS, with the indicated conditional medium, or EVs. The cells that migrated and invaded to the lower membrane surface were stained using crystal violet and then counted under microscopy.
(§2) HCC cells were seeded in 6-well plate and subjected to 2 μg EVs treatment for 48 hours one day after seeding. Then the cells were used for functional studies or western blotting. For treating with neutralizing antibodies, EVs were incubated with PBS (1:10 volume/volume), IgG antibody (1:10 volume/volume) (Santa Cruz, sc-2025), or anti-S100A10 neutralizing antibody (1:10 volume/volume) (Santa Cruz, sc-81153) before they were applied in in vitro or in vivo assays. For S100A10 NA or ITGAV treatment before EVs isolation, 20 ug S100A10 NA or IgG were pre-incubate with 1,000 million cells and then seed in medium with 10% EVs free FBS. Then the EVs were collected after 48 hours.

PLC cells [5] = test: Focus formation assay; format: cell-based, human
Procedure: Focus formation assay was used to assess anchorage-dependent growth. In brief, 1,000 cells were seeded in each well of six-well plate for approximately 2-3 weeks. Surviving colonies were stained and counted using crystal violet (Sigma-Aldrich).
as §2

PLC cells [6] = test: Sphere formation assay; format: cell-based, human
Procedure: A total of 1,000 cells were cultured in 0.25% methyl cellulose (Sigma-Aldrich) supplemented DMEM/F12 medium (Life Technologies) with 20 ng/mL EGF (Life Technologies), 10 ng/mL basic FGF (Life Technologies), B27 (1:50, GIBCO), and 4 μg/mL insulin (BIOIND, Kibbutz Beit Haemek, Israel) in 24-well plates, which were coated with poly HEMA (Sigma-Aldrich). The cells were replenished with 30 μL supplementary medium every other day.
as §2

PLC-Vec/S100A10 cells = test: XTT assay for cell proliferation with gefitinib; format: cell-based, human
[7] = test system: MMP2, fibronectin and EGF on EVs; test: Western blotting of MMP2, fibronectin, EGF and S100A10 in EVs and cells; format: cell-based, human; conditions: PLC-S100A10 cells treated 48 hours, compared with control GRADSP peptides (RAD)
Procedure: For EVs isolation from cell culture supernatants, HCC cells were cultured in medium with 10% EV-depleted FBS, which was prepared by 100,000× g centrifugation overnight (≥12 h) at 4° C. (Himac, CP100NX Ultracentrifuges). EVs were purified by differential centrifugation after the cell culture supernatant were collected. Briefly, cell culture supernatants were centrifuged at 2000×g for 15 min to remove cell debris and dead cells. Then the supernatant was centrifugated at 20000×g for 30 min at 4° C. to remove microvesicles. Then the supernatant was first passed through 0.22 μm filter followed by ultracentrifugation at 100,000×g for 2 h at 4° C. to collect EVs. The EVs were then washed with PBS and collected by ultracentrifugation at 100,000×g for another 2 h at 4° C. HCC patients' or healthy donors' plasma derived EVs were purified by differential centrifugation. The plasma was first centrifuged at 4000 g for 15 min to obtain cell-free plasma. Then, 500 μL of the obtained plasma was toped-up to 1 mL and then centrifuged at 20,000 g for 1 hour (Himac, CP100NX Ultracentrifuges). The collected supernatants were then centrifuged at 100,000 g for 2 h at 4° C. […]
Quantified protein lysates were resolved on SDS-PAGE, transferred onto a polyvinylidenedifluoride (PVDF) membrane (Bio-Rad), and then blocked with 5% non-fat milk in Tris-buffered saline-Tween 20 (TBST) for 1 h at room temperature. […]

| Compound | cell viability of S100A10-OE cells versus controls on treatment (HCC cells (PLC, 97L) [1]) | apoptotic indices of S100A10-OE cells versus controls on treatment (HCC cells (PLC, 97L) [2]) | xenograft tumor growth in PLC-S100A10 group versus control group when treated [3] | expression of S100A10 (S100A10) | expression of HIF-1α (HIF-1α) | other results |
| --- | --- | --- | --- | --- | --- | --- |
| O=c1[nH]cc(F)c(=O)[nH]1 [5-FU, 5-flurouracil] | significantly higher | lower | significantly larger | upregulated | – | – |
| N.N.[Cl][Pt][Cl] [cisplatin] | significantly higher | lower | significantly larger | upregulated | upregulated | – |
| COc1cc2ncnc(Nc3ccc(F)c(Cl)c3)c2cc1OCCCN1CCOCC1 [gefitinib] | – | – | – | – | – | invasion ability of S100A10-OE cells (HCC cells (PLC, 97L) [4]): significantly suppressed; migration ability of S100A10-OE cells (HCC cells (PLC, 97L) [4]): significantly suppressed; focus formation of S100A10-OE cells (PLC cells [5]): significantly suppressed; sphere formation of S100A10-OE cells (PLC cells [6]): significantly suppressed; chemoresistance of S100A10-OE cells (HCC cells (PLC, 97L) [1]; PLC S100A10-OE cells, sorafenib): significantly suppressed; sensitivity of S100A10-OE cells versus Vec cells (cell proliferation) (PLC-Vec/S100A10 cells): more sensitive |
| CNC(=O)c1cc(Oc2ccc(NC(=O)Nc3ccc(Cl)c(C(F)(F)F)c3)cc2)ccn1 [sorafenib] | significantly higher | lower | significantly larger | upregulated | upregulated | – |
| GRGDSP [RGD peptide] | – | – | – | – | – | S100A10 on EVs [7]: no changes; levels of MMP2, fibronectin and EGF on EVs [7]: greatly reduced |
